Consider one compound from patent publication US9895338B1, “Cobalt-polypyridyl complex for treatment of cancer, a pharmaceutical composition and a kit comprising it” (Macau University of Science and Technology, priority 2016, dated 2018).

The test relates to OV2008 cervical cancer cells. Description: MTT cytotoxicity, OV2008 (cisplatin-sensitive). Conditions: 72 h. Format: cell-based. The method, then:
All prepared cobalt-polypyridyl complexes were dissolved in DMSO at a final concentration of 50 mmol/L and stored at −20° C. before use. Cytotoxicity was assessed by using the 3-(4,5-dimethylthiazol-2-yl)-2,5-diphenyltetrazolium bromide (MTT) (5.0 mg/ml) assay as previously described (Wong, V. K. et al., Cell Death Dis, 2013, 4, e720). Briefly, 4×10^3 cells per well were seeded in 96-well plates before drug treatments. After overnight culture, the cells were then exposed to different concentrations of selected compounds (0.039-100 μmol/L) for 72 h. Cells without drug treatment were used as control. Subsequently, MTT (10 μL) solution was added to each well and incubated at 37° C. for 4 h followed by the addition of 100 μL solubilization buffer (10% SDS in 0.01 mol/L HCl) and overnight incubation. A570 nm was then determined in each well on the next day. The percentage of cell viability was calculated using the following formula: Cell viability (%)=Atreated/Acontrol×100. Data were obtained from three independent experiments.
Cisplatin-sensitive or -resistant A2780, OV2008 and C13 cancer cells were provided by Prof. Benjamin Tsang (Department of Obstetrics and Gynecology and Department of Cellular and Molecular Medicine, University of Ottawa, Canada). HCT116 p53^+/+ and p53^−/− isogenic human colon cancer cells were provided by Professor Bert Vogelstein (Ludwig Center at Johns Hopkins, Howard Hughes Medical Institute, USA). All media were supplemented with 10% fetal bovine serum and the antibiotics penicillin (50 U/ml) and streptomycin (50 μg/ml; Invitrogen, Paisley, Scotland, UK). All cell cultures were incubated at 37° C. in a 5% humidified CO2 incubator.

Compound `Cc1ccnc(-c2cc(C)ccn2)c1.Cc1ccnc(-c2cc(C)ccn2)c1.Cc1ccnc(-c2cc(C)ccn2)c1.F[P-](F)(F)(F)(F)F.F[P-](F)(F)(F)(F)F.F[P-](F)(F)(F)(F)F.[Co+3]` [complex (IV), [Co^III(4,4′-Me2-Bpy)3.](PF6)3] had a half-maximal inhibitory concentration (IC50) of 7.62 µM.

One may read the IC50 as the concentration needed to halve the response being measured. High values mean a need for much substance, low ones inhibition by little substance.
